The values below come from patent US20240391877A1, “COMPOUND AS INHIBITOR OF COMPLEMENT FACTOR D, AND PHARMACEUTICAL COMPOSITION AND USE THEREOF” (WUHAN CREATERNA SCIENCE AND TECHNOLOGY CO.,LTD., priority 2021, published 2024).

The target in data set [1] is T1, complement factor D (Homo sapiens, UniProt P00746).
T1 construct: purchased Complement tech
Kind of data set: Complement factor D inhibitory activity (C3b method) in vitro screening; product Bb detected by ELISA. The class given is biochemical. As to conditions: factor D + factor B + factor C3b, 37° C., Bb by MicroVue Bb Plus ELISA. An excerpt: 1. Complement Factor D Inhibitory Activity (C3b Method) In Vitro Screening Experiment
V-bottom plate (AXYGEN), DMSO (Sigma), MicroVue Bb Plus ELISA kit (Quidel), complement factor C3b (abbreviated as factor C3b, Complement tech), complement factor B (abbreviated as factor B, Complement tech), complement factor D (abbreviated as factor D, Complement tech), EDTA (MACKLIN), GVB^o (Complement tech), EGTA (Aladdin), MgCl2 (Aladdin), NaOH (Sinopharm), microplate reader (Molecular Devices, SpectraMax i3x), microplate thermostatic shaker (Thermo, MB100-2A), pipette (Gilson)
0.1 M Mg-EGTA: 3.8 g of EGTA, 0.9521 g of MgCl2, and 0.7 g of NaOH were weighed, and the pH was adjusted to 7.5 with NaOH. Distilled water was added to make up to 100 mL, and the mixture was filtered with a […] sterile needle filter, stored in portions at 4° C.
Buffer: 0.1 M Mg-EGTA solution was diluted 10-fold to 10 mM with GVB^o buffer; • factor B working solution: 1 mg/mL factor B solution (10.75 μM) was diluted 6.7-fold to 1.6 μM with buffer; • factor C3b working solution: 1 mg/mL factor C3b solution (5.68 μM) was diluted 5-fold to […] with buffer; • factor D working solution: 0.1 mg/mL factor D solution (4.17 μM) was diluted 1303-fold to 3.2 nM with buffer.
Note: a. The above dilution multiples are for reference only and are adjusted according to the true concentration labeled on the reagent; • b. factor B: 93 KDa, factor D: 24 KDa, factor C3b: 176 KDa.
Stop solution: An appropriate amount of EDTA powder was weighed, dissolved in a certain amount of GVB^o buffer, and the pH was adjusted to 7.5 with NaOH. The mixture was stirred until clear and prepared into a 10 mM solution.
Compound stock solution: 40 mM compound solution was diluted with DMSO into 1 mM stock solution, and the 1 mM stock solution was diluted 3-fold with DMSO at 8 points to prepare compound stock solutions of various concentrations.
Compound working solution: diluted 250-fold with buffer to obtain compound solutions of various concentrations.
In the V-bottom plate, the experimental group was added with 10 μL of factor D solution and 10 μL of compound solution; the positive control group was added with 10 μL of factor D solution and buffer containing 0.4% DMSO; the blank control group was added with […] containing 0.2% DMSO; incubated at 37° C. for 15 min; the factor B working solution and the factor C3b working solution were mixed homogeneously at a ratio of 1:1; 20 µL of the mixture was added to each well and incubated at 37° C. for 30 min; the reaction was stopped by adding 40 μL of stop solution; the production of product Bb was detected by MicroVue Bb Plus ELISA kit.
1.4.1 The required wells of the ELISA plate were taken out and allowed to return to room temperature, and the remaining ones were repackaged and stored at 4° C.;
1.4.2 the wells were washed twice with 300 μL of 1× wash buffer, and incubated for 1 min at 25° C. for the first wash;
1.4.3 samples were diluted 8-fold with complement specimen diluent, and 100 μL of sample was added to each well and incubated at 25° C. for 30 min;
1.4.4 the liquid in the wells was discarded, and the wells were washed 5 times with 300 μL of 1× wash buffer, and incubated at room temperature for 1 min for the first wash;
1.4.5 50 μL of Bb Plus Conjugate was added to each well and incubated at 25° C. for 30 min;
1.4.6 the liquid in the wells was discarded, and the wells were washed 5 times with 300 μL of 1× wash buffer, and incubated at room temperature for 1 min for the first wash;
1.4.7 100 μL of […] (Substrate Solution) was added to each well and incubated at 25° C. for 15 min;
1.4.8 100 μL of stop solution was added to each well, and the absorbance was detected at 450 nm within 30 min.
1.5.1 Inhibition rate of each drug concentration:
The PC group represents 0% inhibition rate, and the NC group represents 100% inhibition rate. […]
(In general: An ELISA detects its analyte on a solid surface through an enzyme-linked reagent.)

For data set [2], the system named is hemolysis of rabbit erythrocytes. Kind of data set: Rabbit erythrocyte hemolysis assay to evaluate inhibitory activity on the bypass pathway. It counts as cell-based. As to conditions: Oryctolagus cuniculus, 0.5 h, 48% NHP or 26.4% NHS, 37° C. 30 min, absorbance 415 nm. An excerpt: 2. Rabbit Erythrocyte Hemolysis Assay to Evaluate the Inhibitory Activity of Compounds on the Bypass Pathway
Normal Human Serum, NHS (collected from healthy people), Normal Human Plasma, NHP (Shanghai Yuduo), 96-well ELISA plate (Jet Biofil), Japanese big-eared white rabbit (Wuhan WQJX), Alsever's solution (Procell), centrifuge (Thermo, PICO17), thermostatic shaker (Shanghai Fuma), destaining shaker (Beijing Liuyi), cell counter (Invitrogen, Counter Countess II) (GVB^o, EGTA, MgCl2, NaOH, microplate reader, microplate thermostatic shaker, and pipette are equivalent to those in the experiment 1).
48% NHP: 100% NHP was diluted to 48% with buffer;
26.4% NPS: 100% NHS was diluted to 26.4% with buffer;
rabbit erythrocyte suspension: blood was taken from rabbit ear marginal vein, anticoagulated with Alsever's solution at a ratio of 1:1, stored in portions at 4° C., and could be stored for 4 weeks. Before use, the suspension was centrifuged at 500 g for 5 min to discard the Alsever's solution, washed three times with an equal volume of buffer and centrifuged at 500 g for 5 min, and finally the density was adjusted to 6×10^8 cells/mL with buffer.
In the 96-well ELISA plate, the experimental group was added with 50 μL of 48% NHP or 26.4% NHS and 50 μL of compound solution; the positive control group was added with 50 μL of 48% NHP or 26.4% NHS and 50 μL of buffer containing 0.2% DMSO; the blank control group was added with 50 μL of 48% inactivated NHP or 26.4% inactivated NHS and 0.2% DMSO buffer; the H2O group was added with 100 μL of double-distilled water; incubated at 37° C. for 15 min; 20 μL of rabbit erythrocyte suspension was added to each well and incubated on a shaker at 37° C. for 30 min; centrifuged at 2000 g (3380 rpm) for 5 min, and […] of supernatant was transferred to a new 96-well ELISA plate, and the absorbance was detected at 415 nm.
The PC group represents 100% hemolysis, and the NC group represents 0% hemolysis.
IC50: half-maximal inhibitory concentration. Data were collected to calculate the log value of hemolysis percentage versus compound concentration, and IC50 values were calculated using GraphPad Prism software.

The nature of data set [3]: In vivo pharmacokinetic study (PK assay on SD rats). To be noted: Sprague-Dawley, rat, plasma; for bioavailability: read-out: Oral bioavailability F. The procedure:
3. In Vivo Pharmacokinetic Study of the Compounds of the Present Disclosure
After adaptive domestication, SPF grade SD rats were administered 1 or 3 mg/kg the compounds of the present disclosure by single gavage and tail vein injection, respectively. Plasma was collected at specific time points after administration, and the concentration of compounds in plasma was detected by LC-MS/MS (AB SCIEX Qtrap4500). The PK parameters of each compound were calculated using software to reflect the pharmacokinetic properties of the compounds of the present disclosure in vivo in animals.

[4] abbreviates: PO (3% DMSO + 4% Tween), 1 mg/kg.
[5] abbreviates: PO (3% DMSO + 4% Tween), 3 mg/kg.

The IC50 is the concentration that inhibits the measured activity by half. The AUC(0-t) is exposure summed from dosing to a finite time, without extrapolation to infinity. Broadly, the Cmax is the maximum level reached in the sampled fluid or tissue. As a reminder, the half-life is the time in which the quantity being followed falls by half. By bioavailability is commonly meant dose-corrected exposure relative to a reference, in per cent.

Structures are written as SMILES. Where two headings read alike, the source gives them in different places.

T1 sequence (P00746 26-253): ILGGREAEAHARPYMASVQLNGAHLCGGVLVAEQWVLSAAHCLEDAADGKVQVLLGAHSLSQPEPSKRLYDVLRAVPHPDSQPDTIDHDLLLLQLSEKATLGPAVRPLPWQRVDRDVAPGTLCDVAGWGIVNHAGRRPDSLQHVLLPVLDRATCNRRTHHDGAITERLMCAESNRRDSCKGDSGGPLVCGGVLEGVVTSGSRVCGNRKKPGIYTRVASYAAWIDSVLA

For `NCc1cccc(-c2cc(COc3ccccc3CC(=O)O)cc(N3CCC4(CC3)CC4)c2)c1` [Compound 001, 2-(2-((3′-(aminomethyl)-5-(6-azaspiro[2.5]octan-6-yl)-[1,1′-biphenyl]-3-yl)methoxy)phenyl)acetic acid], the IC50 turned out to be 10 nM in data set [1] and 41 nM in data set [2]. Further, the AUC(0-t) in data set [3] (IV, 1 mg/kg) came to 8030 ng·h/mL; in data set [3] (setting [4]), 3240 ng·h/mL. For the same compound, the Cmax worked out at 1800 ng/mL in data set [3] (IV, 1 mg/kg) and 577 ng/mL in data set [3] (setting [4]). In addition, the half-life was 3.59 h in data set [3] (IV, 1 mg/kg) and 4.13 h in data set [3] (setting [4]). Also, the bioavailability in data set [3] (PO 1 mg/kg vs IV 1 mg/kg) came to 40.3%.

For the compound `NCc1cccc(-c2cc(COc3ccccc3CC(=O)O)cc(N3CCC4(CC3)CC4)c2)c1F` [Compound 007, 2-(2-((3′-(aminomethyl)-2′-fluoro-5-(6-azaspiro[2.5]octan-6-yl)-[1,1′-biphenyl]-3-yl)methoxy)phenyl)acetic acid], the IC50 in data set [1] came to 12 nM. The IC50 in data set [2] was determined as 59 nM. In data set [3] (IV, 1 mg/kg), this compound showed an AUC(0-t) of 3290 ng·h/mL, a Cmax of 3270 ng/mL and a half-life of 0.64 h. In addition, the bioavailability in data set [3] (PO 1 mg/kg vs IV 1 mg/kg) is 70.2%. In data set [3] (setting [4]), the AUC(0-t) amounted to 2310 ng·h/mL, the Cmax was determined as 936 ng/mL and the half-life was 1.46 h.

Turning to `NCc1nccc(-c2cc(COc3ccccc3CC(=O)O)cc(N3CCC4(CC3)CC4)c2)c1F` [Compound 023, 2-(2-((3-(2-(aminomethyl)-3-fluoropyridin-4-yl)-5-(6-azaspiro[2.5]octan-6-yl)benzyl)oxy)phenyl)acetic acid], the half-maximal inhibitory concentration (IC50) in data set [1] is 15 nM; in data set [2], 76 nM. Also, the AUC(0-t) in data set [3] (IV, 1 mg/kg) was 7060 ng·h/mL; in data set [3] (setting [5]), 7480 ng·h/mL. Moreover, the Cmax in data set [3] (IV, 1 mg/kg) is 3410 ng/mL; in data set [3] (setting [5]) it was 1020 ng/mL. Besides, the half-life in data set [3] (IV, 1 mg/kg) is 4.58 h; in data set [3] (setting [5]), 4.1 h. The bioavailability in data set [3] (PO 3 mg/kg vs IV 1 mg/kg) worked out at 35.3%.

In the case of `NCc1cccc(-c2cc(COc3ccccc3CC(=O)O)cc(N3CCC4(CCNCC4)CC3)c2)c1` [Compound 033, 2-(2-((3′-(aminomethyl)-5-(3,9-diazaspiro[5.5]undecan-3-yl)-[1,1′-biphenyl]-3-yl)methoxy)phenyl)acetic acid], the IC50 in data set [1] stood at 2 nM; in data set [2], 3 nM.

As for `NCc1cccc(-c2cc(COc3ccccc3CC(=O)O)cc(N3CCC4(CCCC4)C3)c2)c1` [Compound 034], the IC50 amounted to 1 nM in data set [1] and 11 nM in data set [2].
